ChEMBL document CHEMBL1128814, “Non-peptide neuropeptide y antagonists derived from the histamine H2 agonist arpromidine: Role of the guanidine group” (Bioorg Med Chem Lett, 1995)
The source made the active and inactive calls. The calls are words filed in the database; no cut-off is given here.

Legend:
[1] = target: Histamine H1 receptor (Cavia porcellus) (UniProt P31389); test: Antagonistic activity (H1 antagonism) evaluated by the inhibition of histamine-stimulated contraction in guinea pig ileum at a concentration of 1E-7 - 1E-4 M; assay type: functional, tissue-based
[2] = target: Histamine H2 receptor (Cavia porcellus) (UniProt P47747); test: Intrinsic activity was evaluated against H2 receptor in guinea pig atrium at a concentration of 1E-7 - 1E-4 M; assay type: tissue-based; conditions: Cardiac atrium
[3] = target: T1, Neuropeptide Y receptor type 1 (Homo sapiens) (UniProt P25929); test: Tested for inhibition of NPY-induced increase in [Ca2+] at 10 uM concentration in human erythroleukemia cells; Not determined; inactive; assay type: functional
T1 sequence (whole entry): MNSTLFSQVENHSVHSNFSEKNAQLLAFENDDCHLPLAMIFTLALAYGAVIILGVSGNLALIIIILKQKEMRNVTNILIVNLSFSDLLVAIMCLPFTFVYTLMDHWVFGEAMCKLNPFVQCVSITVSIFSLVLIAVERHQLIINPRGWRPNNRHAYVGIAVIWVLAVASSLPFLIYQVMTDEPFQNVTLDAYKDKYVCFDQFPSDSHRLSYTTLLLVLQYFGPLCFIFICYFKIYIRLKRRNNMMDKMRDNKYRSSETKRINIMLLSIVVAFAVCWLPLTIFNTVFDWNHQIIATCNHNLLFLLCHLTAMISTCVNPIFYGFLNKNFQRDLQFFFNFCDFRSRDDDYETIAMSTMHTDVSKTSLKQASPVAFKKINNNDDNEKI

[4] = target: Histamine H2 receptor (Cavia porcellus) (UniProt P47747); test: Histamine H2 receptor agonistic activity was evaluated by the inhibition of histamine-stimulated contraction in guinea pig atrium; assay type: functional, tissue-based; conditions: Cardiac atrium
[5] = target: Histamine H2 receptor (Cavia porcellus) (UniProt P47747); test: Intrinsic activity was evaluated against H2 receptor in guinea pig atrium; assay type: tissue-based; conditions: Cardiac atrium
[6] = target: T1, Neuropeptide Y receptor type 1 (Homo sapiens); test: Tested for inhibition of NPY-induced increase in [Ca2+] at 100 uM concentration in human erythroleukemia cells; assay type: functional
[7] = target: T1, Neuropeptide Y receptor type 1 (Homo sapiens); test: Tested for inhibition of NPY-induced increase in [Ca2+] at 10 uM concentration in human erythroleukemia cells; Not determined; assay type: functional
[8] = target: T1, Neuropeptide Y receptor type 1 (Homo sapiens); test: Tested for inhibition of NPY-induced increase in [Ca2+] at 10 uM concentration in human erythroleukemia cells; assay type: functional
[9] = target: T1, Neuropeptide Y receptor type 1 (Homo sapiens); test: Tested for inhibition of NPY-induced increase in [Ca2+] at 10 uM concentration in human erythroleukemia cells; inactive; assay type: functional
[10] = target: T2, Neuropeptide Y receptor type 1 (Homo sapiens, UniProt P25929); test: (§1) pA2 for inhibition of NPY-stimulated [Ca2+] mobilization in HEL cells; assay type: functional, cell-based; conditions: read-out: pA2 (converted)
T2 sequence (P25929 whole entry): T1 sequence (whole entry)

[11] = target: Histamine H2 receptor (Cavia porcellus) (UniProt P47747); test: Histamine H2 receptor agonistic activity (positive chronotropism) was evaluated by the inhibition of histamine-stimulated contraction in guinea pig atrium; Inactive; assay type: functional, tissue-based; conditions: Cardiac atrium
[12] = target: T1, Neuropeptide Y receptor type 1 (Homo sapiens); test: Tested for inhibition of NPY-induced increase in [Ca2+] at 100 uM concentration in human erythroleukemia cells; inactive; assay type: functional
[13] = target: Histamine H2 receptor (Cavia porcellus) (UniProt P47747); test: Intrinsic activity was evaluated in guinea pig atrium at a concentration of 1E-7 - 1E-4 M; assay type: tissue-based; conditions: Cardiac atrium
[14] = target: Histamine H2 receptor (Cavia porcellus) (UniProt P47747); test: Histamine H2 receptor […] activity (positive chronotropism) was evaluated by the inhibition of histamine-stimulated contraction in guinea pig atrium at a concentration of 1E-7 - 1E-4 M; assay type: functional, tissue-based; conditions: Cardiac atrium
[15] = target: T1, Neuropeptide Y receptor type 1 (Homo sapiens); test: as §1; assay type: cell-based

Sequence of Histamine H1 receptor (Cavia porcellus) (P31389 whole entry): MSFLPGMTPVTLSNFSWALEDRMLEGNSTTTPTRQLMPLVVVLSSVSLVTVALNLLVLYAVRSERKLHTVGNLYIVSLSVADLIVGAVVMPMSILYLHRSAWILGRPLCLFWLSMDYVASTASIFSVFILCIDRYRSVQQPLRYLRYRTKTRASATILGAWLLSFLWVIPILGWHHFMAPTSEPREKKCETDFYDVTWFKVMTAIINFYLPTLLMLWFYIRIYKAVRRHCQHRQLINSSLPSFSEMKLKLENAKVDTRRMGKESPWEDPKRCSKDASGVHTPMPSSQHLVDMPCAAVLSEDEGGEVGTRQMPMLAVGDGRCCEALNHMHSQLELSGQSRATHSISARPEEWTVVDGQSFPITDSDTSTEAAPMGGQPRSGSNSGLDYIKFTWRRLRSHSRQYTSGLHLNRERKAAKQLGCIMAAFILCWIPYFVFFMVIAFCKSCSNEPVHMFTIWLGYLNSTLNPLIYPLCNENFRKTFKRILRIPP
Sequence of Histamine H2 receptor (Cavia porcellus) (P47747 whole entry): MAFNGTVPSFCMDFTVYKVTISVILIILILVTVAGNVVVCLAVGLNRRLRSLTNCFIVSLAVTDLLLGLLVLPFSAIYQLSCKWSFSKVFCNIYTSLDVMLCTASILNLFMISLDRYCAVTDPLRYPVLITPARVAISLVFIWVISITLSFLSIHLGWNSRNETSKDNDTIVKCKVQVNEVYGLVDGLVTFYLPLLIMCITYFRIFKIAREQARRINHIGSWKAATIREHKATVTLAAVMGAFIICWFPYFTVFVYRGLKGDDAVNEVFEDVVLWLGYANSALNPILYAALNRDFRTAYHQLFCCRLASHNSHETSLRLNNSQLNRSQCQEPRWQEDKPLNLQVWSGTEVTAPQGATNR

Compound: O=C(CCC(c1ccc(F)cc1)c1ccccn1)NCCCc1c[nH]cn1 (stereo unspecified)
- pKB [1]: 3.97
- Intrinsic activity [2]: 1
- inhibition [3]: inactive
- pD2 [4]: < 3

Compound: Fc1ccc(C(CCCNCCCc2c[nH]cn2)c2ccccn2)cc1 (stereo unspecified)
- pKB [1]: 6.43
- Intrinsic activity [5]: 0.5
- pD2 [4]: 5.17
- inhibition [6]: 24%

Compound: Clc1ccc(C(CCC/N=C(/NCCCc2c[nH]cn2)NC2CCCCC2)c2ccccn2)cc1Cl (stereo unspecified)
- inhibition [7]: 30%
- pKB [1]: 5.76
- Intrinsic activity [5]: 1
- pD2 [4]: 4.65
- inhibition [6]: 87%

Compound: N=C(NCCCc1c[nH]cn1)NCCCC(c1ccc(Cl)c(Cl)c1)c1ccccn1 (stereo unspecified)
- inhibition [8]: 31%
- pKB [1]: 7.46
- Intrinsic activity [5]: 1
- pD2 [4]: 6.67
- inhibition [6]: 78%

Compound: CN/C(=N\CCC(c1ccc(Br)cc1)c1ccccn1)NCCCc1c[nH]cn1 (stereo unspecified)
- pKB [1]: 5.71
- Intrinsic activity [5]: 0.9
- inhibition [9]: inactive
- pD2 [4]: 5.75
- inhibition [6]: 38%

Compound: N=C(NCCCc1c[nH]cn1)NCCC(c1cc(F)cc(F)c1)c1ccccn1 (stereo unspecified)
- pKB [1]: 6.56
- Intrinsic activity [5]: 1
- pD2 [4]: 8.05
- inhibition [6]: 62%
- Kb [10]: 37.2 µM

Compound: NC(=O)N/C(=N\CCC(c1ccc(F)cc1)c1ccccn1)NCCCc1c[nH]cn1 (stereo unspecified)
- inhibition [8]: 2%
- inhibition [6]: 62%

Compound: CN(CCC(c1ccc(F)cc1)c1ccccn1)C(=N)NCCCc1c[nH]cn1 (stereo unspecified)
- pKB [1]: 5.96
- Intrinsic activity [5]: 0.8
- pD2 [4]: 5.4
- inhibition [6]: 42%

Compound: c1ccc(C(CCC/N=C(/NCCCc2c[nH]cn2)NC2CCCCC2)c2ccccn2)cc1 (stereo unspecified)
- inhibition [8]: 6%
- pKB [1]: 5.56
- Intrinsic activity [5]: 0.25
- pD2 [4]: 4.49
- inhibition [6]: 53%

Compound: CN/C(=N\CCC(c1ccc(F)cc1)c1ccccn1)NCCCc1c[nH]cn1 (stereo unspecified)
- pKB [1]: 5.08
- Intrinsic activity [5]: 1
- pD2 [4]: 5.65
- inhibition [6]: 13%

Compound: N=C(NCCCc1c[nH]cn1)NCCC(c1ccc(F)cc1)c1ccccn1 (stereo unspecified)
- inhibition [8]: 18%
- pKB [1]: 7.65
- Intrinsic activity [5]: 1
- pD2 [4]: 8.01
- inhibition [6]: 75%

Compound: Brc1ccc(C(CC/N=C(/NCCCc2c[nH]cn2)NC2CCCCC2)c2ccccn2)cc1 (stereo unspecified)
- inhibition [8]: 36%
- pKB [1]: 5.42
- Intrinsic activity [5]: 0.65
- pD2 [4]: 4.69
- inhibition [6]: 82%

Compound: N=C(N)NCCC(c1ccc(F)cc1)c1ccccn1 (stereo unspecified)
- pKB [1]: 6.44
- pD2 [11]: inactive
- inhibition [12]: inactive

Compound: Brc1ccc(C(CC/N=C(/NCCCc2c[nH]cn2)Nc2ccccc2)c2ccccn2)cc1 (stereo unspecified)
- inhibition [8]: 24%
- pKB [1]: 5.81
- Intrinsic activity [13]: 1
- pKB [14]: 5.14
- inhibition [6]: 76%

Compound: N=C(CCCCc1c[nH]cn1)NCCC(c1ccc(F)cc1)c1ccccn1 (stereo unspecified)
- inhibition [8]: 5%
- pKB [1]: 6.56
- Intrinsic activity [5]: 0.6
- pD2 [4]: 6.47
- inhibition [6]: 27%

Compound: N=C(NCCCc1c[nH]cn1)NCCC(c1ccccc1)c1ccccn1 (stereo unspecified)
- inhibition [8]: 2%
- pKB [1]: 7.01
- Intrinsic activity [5]: 1
- pD2 [4]: 7.39
- inhibition [6]: 69%

Compound: N=C(NCCCc1c[nH]cn1)NCCCC(c1ccccc1)c1ccccn1 (stereo unspecified)
- inhibition [8]: 8%
- pKB [1]: 6.06
- Intrinsic activity [5]: 1
- pD2 [4]: 6.61
- inhibition [6]: 84%

Compound: N=C(NCCCc1c[nH]cn1)NCCC(c1ccc(Br)cc1)c1ccccn1 (stereo unspecified)
- inhibition [8]: 27%
- pKB [1]: 6.92
- Intrinsic activity [5]: 1
- pD2 [4]: 7.48
- inhibition [6]: 85%

Compound: CCOC(=O)N/C(=N\CCC(c1ccc(F)cc1)c1ccccn1)NCCCc1c[nH]cn1 (stereo unspecified)
- inhibition [8]: 2%
- pKB [1]: 5.3
- pD2 [11]: inactive
- inhibition [6]: 4%

Compound: N=C(CCC(c1ccccc1)c1ccccn1)NCCCc1c[nH]cn1 (stereo unspecified)
- pKB [1]: 6.45
- Intrinsic activity [5]: 1
- pD2 [4]: 6.5
- inhibition [6]: 45%

Compound: Cc1ccc(CC(CC/N=C(\N)NCCCc2c[nH]cn2)c2ccccn2)cc1 (stereo unspecified)
- inhibition [8]: 23%
- pKB [1]: 6.4
- Intrinsic activity [5]: 1
- pD2 [4]: 5.81

Compound: Cc1ccc(CC(CC/N=C(/NCCCc2c[nH]cn2)NC2CCCCC2)c2ccccn2)cc1 (stereo unspecified)
- inhibition [8]: 24%
- pKB [1]: 5.4
- Intrinsic activity [5]: 1
- pKB [14]: 5.93
- inhibition [6]: 75%

Compound: N#CN/C(=N\CCC(c1ccc(F)cc1)c1ccccn1)NCCCc1c[nH]cn1 (stereo unspecified)
- pD2 [11]: inactive
- inhibition [9]: inactive
- inhibition [6]: 13%

Compound: N=C(NCCCc1c[nH]cn1)NCCC(c1ccc(Cl)c(Cl)c1)c1ccccn1 (stereo unspecified)
- inhibition [8]: 81%
- pKB [1]: 7.1
- Intrinsic activity [5]: 1
- pKB [15]: 6.25
- pD2 [4]: 8.19
- inhibition [6]: 93%

Compound: CN/C(=N\CCCC(c1ccc(Cl)c(Cl)c1)c1ccccn1)NCCCc1c[nH]cn1 (stereo unspecified)
- pKB [1]: 6.16
- Intrinsic activity [5]: 1
- pD2 [4]: 5.58
- inhibition [6]: 41%

Compound: Clc1ccc(C(CCC/N=C(/NCCCc2c[nH]cn2)Nc2ccccc2)c2ccccn2)cc1Cl (stereo unspecified)
- inhibition [7]: 48%
- pKB [1]: 5.5
- Intrinsic activity [2]: 1
- pKB [14]: 4.97
- inhibition [6]: 78%
